Experimental data: patent US20240376099A1, “COMPOUNDS AND COMPOSITIONS AS INHIBITORS OF ENDOSOMAL TOLL-LIKE RECEPTORS” (Novartis AG, priority 2016, published 2024)

Molecular target: T1, TLR9 (Homo sapiens, UniProt Q9NR96)
T1 construct: Fresh blood was collected from normal human donors; endogenous in cells; host or cells: human PBMCs from fresh donor blood
T1 sequence (Q9NR96 26-1032): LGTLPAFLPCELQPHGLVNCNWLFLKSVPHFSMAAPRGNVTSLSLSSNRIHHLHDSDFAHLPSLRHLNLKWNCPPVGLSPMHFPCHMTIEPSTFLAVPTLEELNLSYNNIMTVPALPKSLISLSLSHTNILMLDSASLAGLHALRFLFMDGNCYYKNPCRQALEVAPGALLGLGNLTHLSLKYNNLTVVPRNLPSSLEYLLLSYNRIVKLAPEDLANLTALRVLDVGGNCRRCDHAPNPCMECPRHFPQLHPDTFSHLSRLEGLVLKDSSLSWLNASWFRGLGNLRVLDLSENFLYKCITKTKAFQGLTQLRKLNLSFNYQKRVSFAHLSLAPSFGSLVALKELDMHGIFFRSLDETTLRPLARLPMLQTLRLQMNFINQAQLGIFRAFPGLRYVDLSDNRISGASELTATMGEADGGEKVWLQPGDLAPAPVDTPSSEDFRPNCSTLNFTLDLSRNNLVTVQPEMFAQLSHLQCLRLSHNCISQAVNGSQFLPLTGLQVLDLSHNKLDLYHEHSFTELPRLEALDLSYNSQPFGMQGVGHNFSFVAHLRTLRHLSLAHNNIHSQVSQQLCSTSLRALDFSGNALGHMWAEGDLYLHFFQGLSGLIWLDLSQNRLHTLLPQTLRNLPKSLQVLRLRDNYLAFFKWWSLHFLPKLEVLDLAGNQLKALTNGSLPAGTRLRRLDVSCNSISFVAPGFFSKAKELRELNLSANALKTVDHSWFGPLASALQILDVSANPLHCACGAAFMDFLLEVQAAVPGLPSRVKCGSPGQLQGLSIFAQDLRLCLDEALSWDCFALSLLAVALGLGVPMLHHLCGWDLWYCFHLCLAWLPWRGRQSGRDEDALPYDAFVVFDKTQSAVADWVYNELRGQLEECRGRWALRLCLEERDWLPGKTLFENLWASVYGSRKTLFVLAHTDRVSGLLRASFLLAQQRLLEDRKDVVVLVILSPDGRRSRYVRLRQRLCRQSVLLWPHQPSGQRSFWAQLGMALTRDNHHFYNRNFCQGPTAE
Experiment: huPBMC TLR9 Antagonist IFNα Assay
Type: cell-based
Details: human PBMCs stimulated with ODN2216 0.3 μM, 14-16 hrs; IFNα2b AlphaLISA read-out
Outline: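 Human PBMCs from fresh donor blood (150,000 cells/well) stimulated 14–16 h at 37 °C with DOTAP-complexed ssRNA40 (final 1 μg/ml for TLR8, 10 μg/mL for TLR7) or ODN2216 (final 0.3 μM, TLR9), 0.25% DMSO, ten-point 1/3 compound dilutions. Supernatant IL-6 read by HTRF (TLR8); IFNα by IFNα2b AlphaLISA (TLR7/TLR9).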

| SMILES | IC50 [nM] |
| --- | --- |
| Cc1nc(N2CCc3c(c(C)nn3CC34CCC(N(C5CCC5)C5CCC5)(CC3)CC4)C2)c2c(n1)c(C)nn2C [compound 28, N,N-dicyclobutyl-4-((3-methyl-5-(1,3,5-trimethyl-1H-pyrazolo[4,3-d]pyrimidin-7-yl)-4,5,6,7-tetrahydro-1H-pyrazolo[4,3-c]pyridin-1-yl)methyl)bicyclo[2.2.2]octan-1-amine] | > 10000 |
| Cc1nc(N2CCc3c(c(C)nn3CC34CCC(N5CCCCC5)(CC3)CC4)C2)c2cn[nH]c2n1 [compound 29, 6-methyl-4-(3-methyl-1-((4-(piperidin-1-yl)bicyclo[2.2.2]octan-1-yl)methyl)-6,7-dihydro-1H-pyrazolo[4,3-c]pyridin-5(4H)-yl)-1H-pyrazolo[3,4-d]pyrimidine] | > 10000 |
| Cc1nc(N2CCc3c(c(C)nn3CC34CCC(N5CCCC5)(CC3)CC4)C2)c2cn[nH]c2n1 [compound 30, 6-methyl-4-(3-methyl-1-((4-(pyrrolidin-1-yl)bicyclo[2.2.2]octan-1-yl)methyl)-6,7-dihydro-1H-pyrazolo[4,3-c]pyridin-5(4H)-yl)-1H-pyrazolo[3,4-d]pyrimidine] | > 10000 |
| Cc1nc(N2CCc3c(c(C)nn3CC34CCC(NCC5(CO)COC5)(CC3)CC4)C2)c2c(n1)c(C)nn2C [compound 31, (3-(((4-((3-methyl-5-(1,3,5-trimethyl-1H-pyrazolo[4,3-d]pyrimidin-7-yl)-4,5,6,7-tetrahydro-1H-pyrazolo[4,3-c]pyridin-1-yl)methyl)bicyclo[2.2.2]octan-1-yl)amino)methyl)oxetan-3-yl)methanol] | 2340 |
| Cc1nc(N2CCc3c(c(C)nn3CC34CCC(NC(=O)[C@@H]5COCCN5)(CC3)CC4)C2)c2c(n1)c(C)nn2C [compound 33, (S)-N-(4-((3-methyl-5-(1,3,5-trimethyl-1H-pyrazolo[4,3-d]pyrimidin-7-yl)-4,5,6,7-tetrahydro-1H-pyrazolo[4,3-c]pyridin-1-yl)methyl)bicyclo[2.2.2]octan-1-yl)morpholine-3-carboxamide] | > 10000 |
| Cc1nc(N2CCc3c(c(C)nn3CC34CCC(NC(=O)[C@@H]5CNCCO5)(CC3)CC4)C2)c2c(n1)c(C)nn2C [compound 34, (S)-N-(4-((3-methyl-5-(1,3,5-trimethyl-1H-pyrazolo[4,3-d]pyrimidin-7-yl)-4,5,6,7-tetrahydro-1H-pyrazolo[4,3-c]pyridin-1-yl)methyl)bicyclo[2.2.2]octan-1-yl)morpholine-2-carboxamide] | 5700 |
| Cc1nc(N2CCc3c(c(C)nn3CC34CCC(NC(=O)[C@H]5CNCCO5)(CC3)CC4)C2)c2c(n1)c(C)nn2C [compound 36, (R)-N-(4-((3-methyl-5-(1,3,5-trimethyl-1H-pyrazolo[4,3-d]pyrimidin-7-yl)-4,5,6,7-tetrahydro-1H-pyrazolo[4,3-c]pyridin-1-yl)methyl)bicyclo[2.2.2]octan-1-yl)morpholine-2-carboxamide] | 4970 |
| Cc1nc(N2CCc3c(c(C)nn3CC34CCC(N5CCOCC5)(CC3)CC4)C2)c2c(C)noc2n1 [compound 37, 3,6-dimethyl-4-(3-methyl-1-((4-morpholinobicyclo[2.2.2]octan-1-yl)methyl)-6,7-dihydro-1H-pyrazolo[4,3-c]pyridin-5(4H)-yl)isoxazolo[5,4-d]pyrimidine] | > 10000 |
| Cc1nc(N2CCc3c(c(C)nn3CC34CCC(N5CCCCC5)(CC3)CC4)C2)c2c(n1)c(C)nn2C [compound 38, 1,3,5-trimethyl-7-(3-methyl-1-((4-(piperidin-1-yl)bicyclo[2.2.2]octan-1-yl)methyl)-6,7-dihydro-1H-pyrazolo[4,3-c]pyridin-5(4H)-yl)-1H-pyrazolo[4,3-d]pyrimidine] | > 10000 |
| Cc1nc(N2CCc3c(c(C)nn3CC34CCC(N5CCCCC5)(CC3)CC4)C2)c2cnn(C)c2n1 [compound 39, 1,6-dimethyl-4-(3-methyl-1-((4-(piperidin-1-yl)bicyclo[2.2.2]octan-1-yl)methyl)-6,7-dihydro-1H-pyrazolo[4,3-c]pyridin-5(4H)-yl)-1H-pyrazolo[3,4-c]pyrimidine] | > 10000 |
| [2H]C([2H])([2H])N(C([2H])([2H])[2H])C12CCC(Cn3nc(C)c4c3CCN(c3nc(C)nc5c(C)nn(C)c35)C4)(CC1)CC2 [compound 40, 4-((3-methyl-5-(1,3,5-trimethyl-1H-pyrazolo[4,3-d]pyrimidin-7-yl)-4,5,6,7-tetrahydro-1H-pyrazolo[4,3-c]pyridin-1-yl)methyl)-N,N-bis(trideuteromethyl)bicyclo[2.2.2]octan-1-amine] | 2520 |
| Cc1nn(CC23CCC(N)(CC2)CC3)c2c1CN(c1ccnc3[nH]ncc13)CC2 [compound 41, 4-((3-methyl-5-(1H-pyrazolo[3,4-b]pyridin-4-yl)-4,5,6,7-tetrahydro-1H-pyrazolo[4,3-c]pyridin-1-yl)methyl)bicyclo[2.2.2]octan-1-amine] | 817 |
| Cc1c2c(nn1CC13CCC(N)(CC1)CC3)CCN(c1ccnc3[nH]ncc13)C2 [compound 42, 4-((3-methyl-5-(1H-pyrazolo[3,4-b]pyridin-4-yl)-4,5,6,7-tetrahydro-2H-pyrazolo[4,3-c]pyridin-2-yl)methyl)bicyclo[2.2.2]octan-1-amine] | 472 |
| Cc1cc(N2CCc3c(c(C)nn3CC34CCC(N)(CC3)C4)C2)c2cnn(C)c2n1 [compound 44, 4-((5-(1,6-dimethyl-1H-pyrazolo[3,4-b]pyridin-4-yl)-3-methyl-4,5,6,7-tetrahydro-1H-pyrazolo[4,3-c]pyridin-1-yl)methyl)bicyclo[2.2.1]heptan-1-amine] | 1210 |
| Cc1cc(N2CCc3c(c(C(F)(F)F)nn3CC34CCC(N)(CC3)CC4)C2)c2cnn(C)c2n1 [compound 45, 4-((5-(1,6-dimethyl-1H-pyrazolo[3,4-b]pyridin-4-yl)-3-(trifluoromethyl)-4,5,6,7-tetrahydro-1H-pyrazolo[4,3-c]pyridin-1-yl)methyl)bicyclo[2.2.2]octan-1-amine] | 2060 |
| Cc1cc(N2CCc3c(c(C)nn3CC34CCC(NCC(=O)N5CCCCC5)(CC3)CC4)C2)c2cnn(C)c2n1 [compound 99, 2-((4-((5-(1,6-dimethyl-1H-pyrazolo[3,4-b]pyridin-4-yl)-3-methyl-4,5,6,7-tetrahydro-1H-pyrazolo[4,3-c]pyridin-1-yl)methyl)bicyclo[2.2.2]octan-1-yl)amino)-1-(piperidin-1-yl)ethanone] | 2840 |
| Cc1cc(N2CCc3c(c(C)nn3CC34CCC(NC(=O)CN5CCCC5)(CC3)CC4)C2)c2cnn(C)c2n1 [compound 100, N-(4-((5-(1,6-dimethyl-1H-pyrazolo[3,4-b]pyridin-4-yl)-3-methyl-4,5,6,7-tetrahydro-1H-pyrazolo[4,3-c]pyridin-1-yl)methyl)bicyclo[2.2.2]octan-1-yl)-2-(pyrrolidin-1-yl)acetamide] | 1360 |
| COCCNC12CCC(Cn3nc(C)c4c3CCN(c3cc(C)nc5c3cnn5C)C4)(CC1)OC2 [compound 102, 1-((5-(1,6-dimethyl-1H-pyrazolo[3,4-b]pyridin-4-yl)-3-methyl-4,5,6,7-tetrahydro-1H-pyrazolo[4,3-c]pyridin-1-yl)methyl)-N-(2-methoxyethyl)-2-oxabicyclo[2.2.2]octan-4-amine] | 1240 |
| Cc1cc(N2CCc3c(c(C)nn3CC34CCC(NC(=O)CCN(C)C)(CC3)CC4)C2)c2cnn(C)c2n1 [compound 105, N-(4-((5-(1,6-dimethyl-1H-pyrazolo[3,4-b]pyridin-4-yl)-3-methyl-4,5,6,7-tetrahydro-1H-pyrazolo[4,3-c]pyridin-1-yl)methyl)bicyclo[2.2.2]octan-1-yl)-3-(dimethylamino)propanamide] | 1630 |
| Cc1cc(N2CCc3c(c(C)nn3CC34CCC(NCC(=O)N5CCCC5)(CC3)CC4)C2)c2cnn(C)c2n1 [compound 106, 2-((4-((5-(1,6-dimethyl-1H-pyrazolo[3,4-b]pyridin-4-yl)-3-methyl-4,5,6,7-tetrahydro-1H-pyrazolo[4,3-c]pyridin-1-yl)methyl)bicyclo[2.2.2]octan-1-yl)amino)-1-(pyrrolidin-1-yl)ethanone] | 2660 |
| Cc1cc(N2CCc3c(c(C)nn3CC34CCC(N5CCO[C@H](C)C5)(CC3)CC4)C2)c2cnn(C)c2n1 [compound 107, (R)-4-(4-((5-(1,6-dimethyl-1H-pyrazolo[3,4-b]pyridin-4-yl)-3-methyl-4,5,6,7-tetrahydro-1H-pyrazolo[4,3-c]pyridin-1-yl)methyl)bicyclo[2.2.2]octan-1-yl)-2-methylmorpholine] | 1710 |
